Reference: patent US20260183396A1, “CXCR3 OVEREXPRESSION IN CAR-NK CELLS PRIMES MIGRATION/HOMING INTO THE TUMOR MICROENVIRONMENT” (DANA-FARBER CANCER INSTITUTE, INC., priority 2022, published 2026)

What was measured:
[1] = tested on: MPM explants; experiment: Dynamic single-cell RNA sequencing of MPM explants; assay type: cell-based, human
Procedure: Dynamic single-cell RNA sequencing and data analysis. The previous protocol (Sehgal et al., J. Clin. Invest. 131:e135038 (2021)) was adapted to test S1 explants from MPM PDOTS. […] After 24 hours of treatment in a ULA dish, tumor spheroids were digested with trypsin in a 37° C. incubator for 5 minutes to obtain single-cell suspensions. Cells were loaded onto a 10× chromium instrument (10× Genomics) per manufacturer's instructions. ScRNA libraries were generated using the single cell 3′ reagent kit (10× Genomics) per the user guide. Quality control of the completed libraries was performed using a bioanalyzer high sensitivity DNA kit (Agilent) and then sequenced using the Illumina NextSeq 500 platform.
Raw sequencing reads were processed using the 10× Genomics CellRanger bioinformatics pipeline v6.0.1. The assembled matrix was then fed into the standard workflow of the R package, Seurat v4.0.4. Genes that were expressed in at least 3 cells, and only cells that expressed at least […], were kept for downstream processing. Additionally, cells expressing more than 7000 genes and cells with more than 10% of UMIs mapping to mitochondrial genes were removed from the analysis. All the samples were prepared and sequenced together on the same platform. The filtered matrix was log-normalized using global scaling in Seurat. UMI and mitochondrial transcript content were used as regression parameters. The normalized matrix was scaled and centered gene-wise, and then underwent dimensionality reduction using principal component analysis (PCA) on the highly varying genes. After visual inspection of the PCA elbow plot, the top 10 PCs were chosen for further analysis. Clustering was performed on the chosen PCs using the shared nearest neighbor algorithm in Seurat with default parameters.
A Uniform Manifold Approximation and Projection (UMAP) map was computed and plotted with the DimPlot module of Seurat. Cluster differential expression analysis was performed in Seurat using the FindMarkers command using the Wilcoxon rank sum test without thresholds. Contour plots overlayed onto UMAPs were generated with R package ggplot2 (Wickham, Springer-Verlag New York (2016)).
Cell types were identified based on comparative analysis of the signatures published previously (Han et al., Cell 172:1091-1107 (2018); Muhl et al., Nat. Commun. 11:3953 (2020); Correia et al., Proc. Natl. Acad. Sci. U.S.A. 115:E5980-E5989 (2018); Gueugnon et al., Am. J. Pathol. 178:1033-42 (2011)), as well as marker genes identified in this study, which were used to remove genes ubiquitously expressed across cell subpopulations. Collagen-encoding genes were added to the fibroblast signature.

[2] = tested on: MPM PDOTS; experiment: PDOTS live/dead quantification ex vivo; assay type: cell-based
Procedure: Patient-derived organotypic tumor spheroids (PDOTS). […] Briefly, fresh tumor specimens were minced in a 15 mL falcon tube in prewarmed to 37° C. full media (DMEM from Thermo Fisher Scientific+10% FBS)+100 U/mL collagenase type IV (Life Technologies) and 50 μg/mL dNase I (Roche) for approximately 20 minutes using sterile scissors and pipetting. Dissociated material was strained over 100-μm filter and 40-μm filters to generate S1 (>100 μm), S2 (40-100 μm), and S3 (<40 μm) spheroid fractions, which were subsequently maintained in ultralow-attachment (ULA) tissue culture plates (Corning). […] S2 fractions were used for ex vivo culture by resuspending them in type I rat tail collagen (Corning) at a concentration of 2.8 mg/mL prior to loading into the center gel region of the 3-D microfluidic culture device (AIM Biotech) and incubation for 40 minutes at 37° C. in humidity chambers to allow for polymerization. […]
PDOTS immunofluorescence and live/dead quantification. […] Following incubation with the dyes (20 minutes at room temperature in the dark for AO/PI or 45 minutes for Hoechst 33342/PI), images were captured using 4× objective of a Nikon Eclipse 80i fluorescence microscope equipped with automated motorized stage (Proscan), Z-stack (Prior), and Zyla 5.5 sCMOS camera (Andor). […] Live and dead cell quantitation was performed by measuring total cell area of each dye.

[3] = tested on: IRF3; experiment: IRF3 immunofluorescence in PDOTS; assay type: cell-based, human; details: PDOTS following treatment
Procedure: PDOTS immunofluorescence and live/dead quantification. Dual labeling was performed by loading microfluidic devices with Nexcelom ViaStain acridine orange/propidium iodide (AO/PI) Staining Solution (Nexcelom, CS2-0106) or 10 μg/mL solution of Hoechst 33342 (Thermo Fisher Scientific) and 1 μg/mL solution of PI (Thermo Fisher Scientific). Following incubation with the dyes (20 minutes at room temperature in the dark for AO/PI or 45 minutes for Hoechst 33342/PI), images were captured using 4× objective of a Nikon Eclipse 80i fluorescence microscope equipped with automated motorized stage (Proscan), Z-stack (Prior), and Zyla 5.5 sCMOS camera (Andor). Image capture and analysis were performed using NIS-Elements AR software package. Live and dead cell quantitation was performed by measuring total cell area of each dye. For additional immunofluorescence studies, PDOTS were washed with PBS and blocked with FcR blocking reagent (Miltenyi) for 30 minutes at room temperature. Directly conjugated antibodies CD326 EpCAM-AlexaFluor647 (clone 9C4), CD45-AlexaFluor647 (HI30) (BioLegend), and mesothelin-PE (clone REA1057, Miltenyi) were diluted 1:50 in 10 μg/mL solution of Hoechst 33342 (Thermo Fisher Scientific) in PBS and loaded into microfluidic devices for 1-hour incubation at room temperature in the dark. Spheroids were washed twice with PBS with 0.1% Tween20 followed by PBS. […]

Nc1ncnc2c1ncn2[C@@H]1O[C@@H]2COP(=O)([S-])O[C@@H]3[C@H](O)[C@@H](COP([O-])(=S)O[C@H]2[C@H]1O)O[C@H]3n1cnc2c(N)ncnc21.[Na+].[Na+] (stereo partly drawn) [ADU-S100]
BST2 avg log2FC ([1]; 10 μM ADU-S100): 2.86
C15orf48 avg log2FC ([1]; 10 μM ADU-S100): 3.02
CCL5 avg log2FC ([1]; 10 μM ADU-S100): 2.10
CMPK2 avg log2FC ([1]; 10 μM ADU-S100): 2.19
CXCL1 avg log2FC ([1]; 10 μM ADU-S100): 2.20
CXCL10 avg log2FC ([1]; 10 μM ADU-S100): 3.10
CXCL11 avg log2FC ([1]; 10 μM ADU-S100): 2.45
HES4 avg log2FC ([1]; 10 μM ADU-S100): 2.07
HLA-B avg log2FC ([1]; 10 μM ADU-S100): 2.09
HLA-C avg log2FC ([1]; 10 μM ADU-S100): 2.08
IFI6 avg log2FC ([1]; 10 μM ADU-S100): 4.76
IFI27 avg log2FC ([1]; 10 μM ADU-S100): 4.89
IFI30 avg log2FC ([1]; 10 μM ADU-S100): 2.24
IFI35 avg log2FC ([1]; 10 μM ADU-S100): 2.69
IFIT1 avg log2FC ([1]; 10 μM ADU-S100): 3.89
IFIT2 avg log2FC ([1]; 10 μM ADU-S100): 3.99
IFIT3 avg log2FC ([1]; 10 μM ADU-S100): 4.01
IFITM1 avg log2FC ([1]; 10 μM ADU-S100): 3.42
IL1B avg log2FC ([1]; 10 μM ADU-S100): 2.23
IL1RN avg log2FC ([1]; 10 μM ADU-S100): 2.21
IL32 avg log2FC ([1]; 10 μM ADU-S100): 3.43
IRF7 avg log2FC ([1]; 10 μM ADU-S100): 2.44
ISG15 avg log2FC ([1]; 10 μM ADU-S100): 5.19
ISG20 avg log2FC ([1]; 10 μM ADU-S100): 3.89
LAP3 avg log2FC ([1]; 10 μM ADU-S100): 2.78
LY6E avg log2FC ([1]; 10 μM ADU-S100): 3.24
MDK avg log2FC ([1]; 10 μM ADU-S100): 2.01
MX1 avg log2FC ([1]; 10 μM ADU-S100): 2.84
OAS1 avg log2FC ([1]; 10 μM ADU-S100): 3.40
OAS3 avg log2FC ([1]; 10 μM ADU-S100): 2.02
OASL avg log2FC ([1]; 10 μM ADU-S100): 3.01
PLAAT4 avg log2FC ([1]; 10 μM ADU-S100): 2.38
PLSCR1 avg log2FC ([1]; 10 μM ADU-S100): 2.64
RSAD2 avg log2FC ([1]; 10 μM ADU-S100): 4.43
SAA1 avg log2FC ([1]; 10 μM ADU-S100): 2.46
STAT1 avg log2FC ([1]; 10 μM ADU-S100): 2.09
TFPI2 avg log2FC ([1]; 10 μM ADU-S100): 2.88
TNFSF13B avg log2FC ([1]; 10 μM ADU-S100): 2.03
WARS avg log2FC ([1]; 10 μM ADU-S100): 3.24
WFDC2 avg log2FC ([1]; 10 μM ADU-S100): 2.06
IL-33 expression in CAFs ([1]; 24 hours): potent and unique STING agonist induction
CXCR3 ligand expression (CXCL9, CXCL10, CXCL11) ([1]; 24 hours, primarily MSLN positive tumor cells (cluster 1) and CAFs (clusters 4, 5)): strongly induced
TGFB1 expression ([1]; MPM cluster 1 relative to clusters 0, 3): downregulated
NECTIN2 (CD112) expression in tumor cells ([1]; NK cell activating ligand): increased
HLA-A/B/C expression in tumor cells ([1]; NK cell inhibitory ligands): dose-dependent increases
ANGPTL4 avg log2FC ([1]; STING agonist treatment): −1.48
CCDC80 avg log2FC ([1]; STING agonist treatment): −1.57
CEMIP avg log2FC ([1]; STING agonist treatment): −1.20
ID1 avg log2FC ([1]; STING agonist treatment): −1.07
IGFBP4 avg log2FC ([1]; STING agonist treatment): −1.42
KRT19 avg log2FC ([1]; STING agonist treatment): −1.81
LDHA avg log2FC ([1]; STING agonist treatment): −1.16
NDRG1 avg log2FC ([1]; STING agonist treatment): −1.07
PABPC1 avg log2FC ([1]; STING agonist treatment): −1.11
PGK1 avg log2FC ([1]; STING agonist treatment): −1.04
RPL41 avg log2FC ([1]; STING agonist treatment): −1.09
RPS29 avg log2FC ([1]; STING agonist treatment): −1.10
RPSA avg log2FC ([1]; STING agonist treatment): −1.10
SERPINB3 avg log2FC ([1]; STING agonist treatment): −2.15
SERPINB4 avg log2FC ([1]; STING agonist treatment): −1.25
SERPINB7 avg log2FC ([1]; STING agonist treatment): −1.73
TGFBI avg log2FC ([1]; STING agonist treatment): −2.38
TPI1 avg log2FC ([1]; STING agonist treatment): −1.11
TUBA1A avg log2FC ([1]; STING agonist treatment): −1.02
abundance of CD8 positive cell populations, including Tregs ([1]; high-dose treatment): depletion
PVR (CD155) expression in tumor cells ([1]; predominantly inhibitory ligand): decreased expression
specimens approximating clinical criteria for response with >30% decrease in cell area, p<0.05 ([2]; 35 MPM patient specimens ex vivo): 7 specimens
primary NK cell response in MPM PDOTS ([2]; combined treatment with primary NK cells, cells from 2 out of 3 donors): significantly enhanced
IRF3 localisation [3]: nuclear translocation
